These results are taken from US7048907B2, “Synthesis, compositions and methods for the measurement of the concentration of stable-isotope labeled compounds in life forms and life form excretory products” (BioPhysics Assay Laboratory, Inc., priority 2001, dated 2006).

Each structure is given as a SMILES string. Like-named read-outs stand apart in the source and are kept apart here.

For data set [1] the following is noted: in vivo; cited from earlier work.
Data set [2] can be described thus: Assay of chelate on carboxymethyl (CM) Sephadex column (chelate formation, charge). The data set is classed as physicochemical. To be noted: for umol Gd: atomic absorption. Here is the method: Preparation of carboxymethyl sephadex column. To two 10 ml plastic pipets cut off at the 3 ml mark and plugged with glass wool at the bottom add enough slurry to form a 2 ml volume of the CM sephadex. Wash the packed resin with 6 ml of 1 M Tris buffer pH 7.5, and 6 ml of 0.01M Tris buffer pH 7.5. […] Collect the eluants of fractions as follows. Fraction 1.3 ml of 0.01 M Tris buffer pH 7.5 and allow to drain into column. Fraction 2.1 ml of sample (gadolinium-DTPA or gadolinium chloride) and allow to drain into column. Apply 3 ml of 0.01 M Tris buffer pH 7.5 and allow to drain into column. Fraction 3.3 ml of 0.01M Tris buffer pH 7.5 and allow to drain into column. Dry all fractions at 70° C. for 76 hours, dissolve in 1 ml of 1 mM HCl and assay by atomic absorption.
(§1) Preparation of carboxymethyl Sephadex column. To two 10 ml plastic pipets which had been cut off at the 3 ml mark and plugged with glass wool at the bottom, enough slurry was added to form a 2 ml volume of the CM Sephadex. The packed resin was wash with 6 ml of 1 M Tris buffer pH 7.5, and 6 ml of 0.01M Tris buffer pH 7.5. […] Fractions were applied as follows. Fraction 1. Three ml of 0.01 M Tris buffer pH 7.5 and allow to drain into column. Fraction 2. One ml of sample (samarium-DTPA or samarium chloride) and allow to drain into column. Apply 3 ml of 0.01 M Tris buffer pH 7.5 and allow to drain into column. Fraction 3. Three ml of 0.01M Tris buffer pH 7.5 and allow to drain into column. Collect the eluant of fractions 1 through 3. Fraction 4. Column and contents.
as §1, with “were” for “had been”, “washed” for “wash”, “(lanthanum-DTPA” for “(samarium-DTPA”, “lanthanum” for “samarium”
as §1, with “were” for “had been”, “washed” for “wash”, “(Europium-DTPA” for “(samarium-DTPA”, “Europium” for “samarium”
Preparation of carboxymethyl sephadex column. To a 10 ml plastic pipet cut off at the 3 ml mark and plugged with glass wool at the bottom, add enough slurry to form a 2 ml volume of the CM sephadex. Wash the packed resin with 6 ml of 1 M Tris buffer pH 7.5, and 6 ml of 0.01M Tris buffer pH 7.5. […] Apply fractions as follows. Fraction 1. One ml of sample A and allow to drain into column.

The conditions of data set [3]: demonstrated by properties of the marketed pharmaceutical product; cited from earlier work.
For data set [4] the following is noted: male, New Zealand White, rabbit, in vivo.
The nature of data set [5]: Stability of chelates in rat serum (CM-Sephadex assay, serum binding). To be noted: 24 hours in rat serum at room temperature.
Where [6] appears, read: Fraction 1: 3 ml 0.01M Tris pH 7.5 before sample.
Setting [7] is: Fraction 2: 1 ml sample then 3 ml 0.01M Tris pH 7.5 (eluate).
[8] abbreviates: Fraction 3: further 3 ml 0.01M Tris pH 7.5.
Where [9] appears, read: Fraction 1: 0.2 ml sample then 2 ml 0.01M Tris pH 7.5 (eluate).
The mark [10] stands for this setting: Fraction 2: 3 ml 0.01M Tris pH 7.5.
The mark [11] stands for this setting: Fraction 3: column and contents (retained).

On to `O=C([O-])C(NCCNC(C(=O)[O-])c1ccccc1[O-])c1ccccc1[O-].[Fe+3]` (centres unmarked) [FE-EHPG], for which, in data set [1], the uptake into liver was 6 % of an administered dose.
As to `O=C([O-])CN1CCN(CC(=O)[O-])CCN(CC(=O)O)CCN(CC(=O)[O-])CC1.[Gd+3]` [Gd-DOTA, Gd-(1,4,7,10-tetraazacyclododecane-1,4,7,10-tetraacetic acid), reference compound], the “% eluted from the CM-Sephadex column” value in data set [2] is 100%. Moreover, the “% of total” value in data set [2] (DOTA chelates, Fraction 1: 1 ml sample diluted 1:10 then 3 ml 0.01M Tris pH 7.5 (eluate)) is recorded as 100 % of total; in data set [2] (DOTA chelates, Fraction 2: further 3 ml 0.01M Tris pH 7.5), 0 % of total. In addition, the entries for the “umol Gd” value in data set [2] (Fraction 1: 1 ml sample diluted 1:10 then 3 ml 0.01M Tris pH 7.5 (eluate)) and in data set [2] (Fraction 2: further 3 ml 0.01M Tris pH 7.5) were 0.1 µmol and 0 µmol, respectively. Moreover, in data set [2] (room temperature, Tris pH 7.5), the “time within which the chelate forms” value was ≤ 5 min. For the same compound, in data set [3], the “stability to autoclaving” value is on record as “stable to autoclaving”.
`CC(=O)N(CC(O)CO)c1c(I)c(C(=O)NCC(O)CO)c(I)c(C(=O)NCC(O)CO)c1I` (centres unmarked) [Iohexol] showed a GFR in data set [4] of 4.8 mL/min/kg. In addition, the serum concentration is 124.4 µg/mL in data set [4] (5 min); 109.4 µg/mL in data set [4] (10 min); 86.6 µg/mL in data set [4] (15 min); 88.85 µg/mL in data set [4] (20 min); 67.69 µg/mL in data set [4] (30 min); 47.02 µg/mL in data set [4] (45 min). In addition, the serum concentration in data set [4] (60 min) turned out to be 48.94 µg/mL; in data set [4] (96 min), 31.74 µg/mL; in data set [4] (120 min), 23.65 µg/mL. Moreover, the serum iodine signal in data set [4] (5 min) is given as 5166.1 dpm/ul; in data set [4] (10 min) it was 4541.7 dpm/ul; in data set [4] (15 min), 3595.7 dpm/ul; in data set [4] (20 min), 3689.4 dpm/ul; in data set [4] (30 min), 2810.5 dpm/ul; in data set [4] (45 min), 1952.3 dpm/ul. Further, the serum iodine signal was found to be 2032.3 dpm/ul in data set [4] (60 min), 1317.8 dpm/ul in data set [4] (96 min) and 982.0 dpm/ul in data set [4] (120 min).
On to `[Cl][Sm]([Cl])[Cl]` [Samarium chloride, reference compound], for which the “% of unchelated ion retained on the column” value in data set [2] is on record as 100%. Besides, the “% of total” value is recorded as 0 % of total in data set [2] (setting [6]); 0 % of total in data set [2] (setting [7]); 0 % of total in data set [2] (setting [8]); 100 % of total in data set [2] (Fraction 4: column and contents (retained)); 48 % of total in data set [5] (setting [9]); 3 % of total in data set [5] (setting [10]). The “% of total” value in data set [5] (setting [11]) was 49 % of total. The dpm in data set [2] (setting [6]) was 0 dpm; in data set [2] (setting [7]), 0 dpm; in data set [2] (setting [8]), 0 dpm; in data set [5] (setting [9]), 104992 dpm; in data set [5] (setting [10]) it was 5702 dpm; in data set [5] (setting [11]) it was 108299 dpm.
